In patent publication US11001558B2, “Asymmetric bisaminoquinolines and bisaminoquinolines with varied linkers as autophagy inhibitors for cancer and other therapy” (THE TRUSTEES OF THE UNIVERSITY OF PENNSYLVANIA, priority 2014, dated 2021):

Key:
autophagy = details: cited from earlier work
A375P melanoma cells = assay: 72 hour alamar blue viability assay; format: cell-based; details: spermine or spermidine linker compared with Lys01
Protocol: […]. A375 P cells seeded in a 384 well format were treated with a 10 point dilution of concentrations (0.01 nM-10 uM) (B) Colony formation assay in soft agar. Cells from the indicated melanoma (A375, WM983B, SKMEL5) and pancreatic cancer (PANC1, CAPAN1) cell lines were plated in soft agar. Medium with compound was changed every 48 hours. Crystal violet staining was used to visualize formed colonies after 2 weeks.
A375P melanoma cells were plated in a 384 well format and treated with increasing concentrations of […] derivatives. After 72 hours the cells were analyzed by alamar blue. Complete data is in Table 1, FIG. 10. (A) IC50 according to symmetry of linker (B) IC50 by linker length.
[…]. After 72 hours incubation at 37 degrees, Alamar blue was applied and viability was determined using absorbance. Absorbance was normalized to DMSO control, and a log IC50 was estimated using Graphpad Prism software.
. After 72 hours incubation at 37 degrees, Alamar blue was applied and viability was determined using absorbance. Absorbance was normalized to DMSO control, and a log IC50 was estimated using Graphpad Prism software (FIG. 11, Table 1). LN229 cells produced similar data (data not shown). The increased cytotoxicity of longer linker and asymmetric compounds was confirmed in a 2 week colony formation assay using 5 different cell lines (FIG. 1B). Analysis of the cytotoxicity findings alone elucidated some key features of potential structure activity relationships. First, substitution of the central nitrogen substitution beyond methyl reduces activity. Second, there was no clear advantage of assymetric versus symmetric linkers (FIG. 2A) with regards to cytotoxicity alone. […]

A375 cells [1] = assay: Apoptosis by annexin V detection; details: for apoptosis (annexin V): 1 uM compound, 24 hour timepoint
Protocol: (C) Apoptosis reflected by annexin V detection in A375 cells treated with 1 uM compound at the 24 hours. (D) Apoptosis reflected by annexin V detection in A375 cells treated with indicated compounds at 3 uM for 24 or 48 hours.

[2] = tested on: A375P mCherry-eGFP-LC3 cells; assay: Flow cytometry green/red ratio, inhibition of autophagic flux; format: cell-based; details: for inhibition of autophagic flux (green/red ratio): 1 uM compound, 24 hours
From the text: PLX: PLX4720; TRA: trametinib.

A375 cells [3] = assay: Flow cytometry quantification of reactive oxygen species (DHR_123 fluorescence); details: 1 uM compound, 24 hours
melanoma cell lines = assay: LC3B and actin immunoblotting (LC3II/actin quantification); details: 1 uM, 24 hours, 3 melanoma cell lines, compared with Lys05
Protocol: Each compound was administered at 1 uM concentrations for 24 hours.
As an initial method of determining the effects of the longer linker compounds on autophagic vesicle accumulation, a series of most cytotoxic dimeric CQ's were used to treat 3 different cell lines (1 uM, 24 hours). Cell lysates were collected and immunoblotting against LC3 and actin as performed (FIG. 4).

[4] = tested on: A375P mCherry eGFP-LC3 cells grown into 3 dimensional spheroids; assay: 3D spheroid growth and invasion in collagen; format: cell-based; details: 3 uM, 72 hours
Protocol: A375P mCherry eGFP-LC3 cells grown into 3 dimensional spheroids and implanted in collagen. After 72 hours of treatment with 3 uM of indicated compound, cells were counterstained with DAPI. (A) fluorescence microscopy was used to visualize autophagy inhibition (bright areas), inhibition of invasion into the collagen and (B) quantification of the DAPI fluorescence indicative of cell death. *p<0.05
The 3D spheroid model has been used extensively to mimic the tumor microenvironment (Ma et al Clin Can Research 2011). Autophagy levels are more reflective of in vivo autophagy dynamics in the 3D models compared to traditional two dimensional cell culture. In this format cancer cells are grown as spheroids and then implanted in a collagen matrix. The spheroids then begin to invade and grow within this tissue microenvironment.

SMILES	potency on replacement of the Lys01 linker with longer linkers (A375P melanoma cells)	apoptosis (annexin V) (A375 cells [1])	inhibition of autophagic flux (green/red ratio) [2]	ROS (DHR_123 fluorescence) (A375 cells [3])	also measured
CCN(CCO)CCCC(C)Nc1ccnc2cc(Cl)ccc12 (centres unmarked) [HCQ, hydroxychloroquine]	–	–	–	–	concentrations required to inhibit autophagy (autophagy): High micromolar concentrations
Clc1ccc2c(NCCCCNCCCNc3ccnc4cc(Cl)ccc34)ccnc2c1 [Lys21]	significant increases in potency	most apoptosis	most effective at inhibiting autophagic flux	–	ability to induce apoptosis compared to comparable symmetric compounds (A375 cells [1]): superior; autophagy inhibition compared to comparable symmetric compounds [2]: superior autophagy inhibition
CN(CCCCNc1ccnc2cc(Cl)ccc12)CCCNc1ccnc2cc(Cl)ccc12 [Lys26]	significant increases in potency	–	–	highest levels of ROS	–
CN(CCCCCCNc1ccnc2cc(Cl)ccc12)CCCCCCNc1ccnc2cc(Cl)ccc12.Cl [Lys75]	–	most apoptosis	most effective at inhibiting autophagic flux	highest levels of ROS	LC3II/actin (melanoma cell lines): most consistent and substantial increase; inhibition of growth and invasion of 3D spheroids [4]: most potent compound at inhibiting growth and invasion
CN(CCCCN(C)CCCNc1ccnc2cc(Cl)ccc12)CCCNc1ccnc2cc(Cl)ccc12 [Lys 25]	significant increases in potency	–	–	–	–
